# US20230035892A1, “METHODS AND COMPOSITIONS FOR TREATING CANCER” (Flagship Pioneering Innovations V, Inc., priority 2019, published 2023)
# Assays:
# Type in all cases: cell-based
# [1] = system: pancreatic cancer cell lines; experiment: Long-term colony formation assay (10-14 days); conditions: colony formation 10-14 days
# Excerpt: Different concentrations of the compound of Formula III-26 were then used to evaluate its effect on pancreatic cancer cell line proliferation in a long-term colony formation assay (10-14 days).
# MIAPACA2 = experiment: Proliferation, percent viability normalized to DMSO; conditions: Homo sapiens, MIA PaCa-2
# Excerpt: (§1) The GRK2 small molecule antagonist of Formula III-26 was used to evaluate the effect of a small molecule GRK2 antagonist on the proliferation of pancreatic cancer cell lines Miapaca2, Panc1, BXPC3, PAXF1657, PAXF1997 and Capan1. Values represent percent viability normalized to DMSO.
# PAXF1657 = experiment: as above
# Excerpt: as §1
# PAXF1997 = experiment: as above
# Excerpt: as §1
# PANC1 = experiment: as above; conditions: Homo sapiens, PANC-1
# Excerpt: as §1
# BXPC3 = experiment: as above; conditions: Homo sapiens, BXPC-3
# Excerpt: as §1
# [2] = system: PAXF1657 control empty vector; experiment: 7-day CellTiter-Glo anti-proliferative assay; conditions: PAXF1657, sgNTC, pReceiver-empty vector, 5 or 10 point dose curve
# Procedure: (§2) Cell lines were seeded into tissue culture treated, white-walled, 96-well plates at a density of 500 cells/well in RPM11640 media supplemented with 10% H.I. FBS and penicillin/streptomycin. Plates were incubated overnight at 37° C., 5% CO2 to allow cells to adhere to the wells. GRK2 small molecule antagonists were added to the cells using a ten-point or five-point dilution series with a final concentration ranging from […] in 0.1% DMSO. At the time of compound addition, a set of plates that were not treated with compounds were collected and cell viability was measured using CellTiter-Glo (Promega). CellTiter-Glo reagent was added to the plates and luminescence was measured using a Biotek Synergy plate reader. The compound treated cells were incubated for 3 days at 37° C., 5% CO2. The media was then aspirated from each well and replaced with fresh media containing GRK2 small molecule antagonists. The compound treated cells were then incubated for another 4 days at 37° C., 5% CO2 and cell viability was assessed at the end of the 7-day compound treatment by CellTiterGlo.
# [3] = system: PAXF1657 stably overexpressing GRK2 cDNA; experiment: 7-day CellTiter-Glo anti-proliferative assay; conditions: PAXF1657, sgNTC, pReceiver-GRK2, 5 or 10 point dose curve
# Procedure: as §2
# [4] = 168 h, read-out: Maximum % Growth inhibition relative to DMSO, geometric mean
structure (smiles),measurement,setting,value
Cn1c(CNc2cccc(C(=O)NCc3ccccc3C(F)(F)F)c2)nnc1-c1ccncc1 [Compound of Formula III-26],Mean intensity,"[1]; BXPC3, 0.1 μM",396.24
same,Normalized to DMSO,"[1]; BXPC3, 0.1 μM",0.99
same,Mean intensity,"[1]; BXPC3, 0.3 μM",445.015
same,Normalized to DMSO,"[1]; BXPC3, 0.3 μM",1.11
same,Mean intensity,"[1]; BXPC3, 1 μM",418.98
same,Normalized to DMSO,"[1]; BXPC3, 1 μM",1.04
same,Mean intensity,"[1]; BXPC3, 3 μM",189.24
same,Normalized to DMSO,"[1]; BXPC3, 3 μM",0.47
same,Mean intensity,"[1]; BXPC3, 10 μM",82.2
same,Normalized to DMSO,"[1]; BXPC3, 10 μM",0.20
same,Mean intensity,"[1]; BXPC3, 30 μM",76.19
same,Normalized to DMSO,"[1]; BXPC3, 30 μM",0.19
same,Mean intensity,"[1]; Miapaca, 0.1 μM",447.5
same,Normalized to DMSO,"[1]; Miapaca, 0.1 μM",1.09
same,Mean intensity,"[1]; Miapaca, 0.3 μM",461.465
same,Normalized to DMSO,"[1]; Miapaca, 0.3 μM",1.13
same,Mean intensity,"[1]; Miapaca, 1 μM",398.675
same,Normalized to DMSO,"[1]; Miapaca, 1 μM",0.97
same,Mean intensity,"[1]; Miapaca, 3 μM",386.35
same,Normalized to DMSO,"[1]; Miapaca, 3 μM",0.94
same,Mean intensity,"[1]; Miapaca, 10 μM",80.16
same,Normalized to DMSO,"[1]; Miapaca, 10 μM",0.20
same,Mean intensity,"[1]; Miapaca, 30 μM",75.66
same,Normalized to DMSO,"[1]; Miapaca, 30 μM",0.18
same,Mean intensity,"[1]; PAXF1657, 0.1 μM",617.13
same,Normalized to DMSO,"[1]; PAXF1657, 0.1 μM",0.97
same,Mean intensity,"[1]; PAXF1657, 0.3 μM",660.9
same,Normalized to DMSO,"[1]; PAXF1657, 0.3 μM",1.04
same,Mean intensity,"[1]; PAXF1657, 1 μM",574.375
same,Normalized to DMSO,"[1]; PAXF1657, 1 μM",0.90
same,Mean intensity,"[1]; PAXF1657, 3 μM",410.77
same,Normalized to DMSO,"[1]; PAXF1657, 3 μM",0.64
same,Mean intensity,"[1]; PAXF1657, 10 μM",326.68
same,Normalized to DMSO,"[1]; PAXF1657, 10 μM",0.51
same,Mean intensity,"[1]; PAXF1657, 30 μM",271.275
same,Normalized to DMSO,"[1]; PAXF1657, 30 μM",0.43
same,Mean intensity,"[1]; PAXF1997, 0.1 μM",461.65
same,Normalized to DMSO,"[1]; PAXF1997, 0.1 μM",1.07
same,Mean intensity,"[1]; PAXF1997, 0.3 μM",500.34
same,Normalized to DMSO,"[1]; PAXF1997, 0.3 μM",1.16
same,Mean intensity,"[1]; PAXF1997, 1 μM",455.7
same,Normalized to DMSO,"[1]; PAXF1997, 1 μM",1.06
same,Mean intensity,"[1]; PAXF1997, 3 μM",379.285
same,Normalized to DMSO,"[1]; PAXF1997, 3 μM",0.88
same,Mean intensity,"[1]; PAXF1997, 10 μM",296.635
same,Normalized to DMSO,"[1]; PAXF1997, 10 μM",0.69
same,Mean intensity,"[1]; PAXF1997, 30 μM",288.38
same,Normalized to DMSO,"[1]; PAXF1997, 30 μM",0.67
same,Mean intensity,"[1]; Panc1, 0.1 μM",477.265
same,Normalized to DMSO,"[1]; Panc1, 0.1 μM",1.16
same,Mean intensity,"[1]; Panc1, 0.3 μM",478.195
same,Normalized to DMSO,"[1]; Panc1, 0.3 μM",1.17
same,Mean intensity,"[1]; Panc1, 1 μM",509.365
same,Normalized to DMSO,"[1]; Panc1, 1 μM",1.24
same,Mean intensity,"[1]; Panc1, 3 μM",504.735
same,Normalized to DMSO,"[1]; Panc1, 3 μM",1.23
same,Mean intensity,"[1]; Panc1, 10 μM",254.47
same,Normalized to DMSO,"[1]; Panc1, 10 μM",0.62
same,Mean intensity,"[1]; Panc1, 30 μM",181.7
same,Normalized to DMSO,"[1]; Panc1, 30 μM",0.44
same,viability at 0.005 µM,"MIAPACA2; Miapaca2, dose 0.005 μM",102%
same,viability at 0.014 µM,"MIAPACA2; Miapaca2, dose 0.014 μM",105%
same,viability at 0.041 µM,"MIAPACA2; Miapaca2, dose 0.041 μM",108%
same,viability at 0.123 µM,"MIAPACA2; Miapaca2, dose 0.123 μM",111%
same,viability at 0.37 µM,"MIAPACA2; Miapaca2, dose 0.370 μM",114%
same,viability at 1.111 µM,"MIAPACA2; Miapaca2, dose 1.111 μM",99.3%
same,viability at 3.333 µM,"MIAPACA2; Miapaca2, dose 3.333 μM",86.6%
same,viability at 10 µM,"MIAPACA2; Miapaca2, dose 10.000 μM",66.1%
same,viability at 30 µM,"MIAPACA2; Miapaca2, dose 30.000 μM",40%
same,viability at 0.005 µM,"PAXF1657; PAXF1657, dose 0.005 μM",111%
same,viability at 0.014 µM,"PAXF1657; PAXF1657, dose 0.014 μM",111%
same,viability at 0.041 µM,"PAXF1657; PAXF1657, dose 0.041 μM",116%
same,viability at 0.123 µM,"PAXF1657; PAXF1657, dose 0.123 μM",118%
same,viability at 0.37 µM,"PAXF1657; PAXF1657, dose 0.370 μM",115%
same,viability at 1.111 µM,"PAXF1657; PAXF1657, dose 1.111 μM",110%
same,viability at 3.333 µM,"PAXF1657; PAXF1657, dose 3.333 μM",102%
same,viability at 10 µM,"PAXF1657; PAXF1657, dose 10.000 μM",88.6%
same,viability at 30 µM,"PAXF1657; PAXF1657, dose 30.000 μM",69%
same,viability at 0.005 µM,"PAXF1997; PAXF1997, dose 0.005 μM",111%
same,viability at 0.014 µM,"PAXF1997; PAXF1997, dose 0.014 μM",111%
same,viability at 0.041 µM,"PAXF1997; PAXF1997, dose 0.041 μM",112%
same,viability at 0.123 µM,"PAXF1997; PAXF1997, dose 0.123 μM",114%
same,viability at 0.37 µM,"PAXF1997; PAXF1997, dose 0.370 μM",118%
same,viability at 1.111 µM,"PAXF1997; PAXF1997, dose 1.111 μM",110%
same,viability at 3.333 µM,"PAXF1997; PAXF1997, dose 3.333 μM",104%
same,viability at 10 µM,"PAXF1997; PAXF1997, dose 10.000 μM",83.7%
same,viability at 30 µM,"PAXF1997; PAXF1997, dose 30.000 μM",81.4%
same,viability at 0.005 µM,"PANC1; Panc1, dose 0.005 μM",103%
same,viability at 0.014 µM,"PANC1; Panc1, dose 0.014 μM",112%
same,viability at 0.041 µM,"PANC1; Panc1, dose 0.041 μM",113%
same,viability at 0.123 µM,"PANC1; Panc1, dose 0.123 μM",113%
same,viability at 0.37 µM,"PANC1; Panc1, dose 0.370 μM",113%
same,viability at 1.111 µM,"PANC1; Panc1, dose 1.111 μM",113%
same,viability at 3.333 µM,"PANC1; Panc1, dose 3.333 μM",100%
same,viability at 10 µM,"PANC1; Panc1, dose 10.000 μM",85.2%
same,viability at 30 µM,"PANC1; Panc1, dose 30.000 μM",86.2%
same,viability at 0.005 µM,"BXPC3; BXPC3, dose 0.005 μM",106%
same,viability at 0.014 µM,"BXPC3; BXPC3, dose 0.014 μM",105%
same,viability at 0.041 µM,"BXPC3; BXPC3, dose 0.041 μM",104%
same,viability at 0.123 µM,"BXPC3; BXPC3, dose 0.123 μM",104%
same,viability at 0.37 µM,"BXPC3; BXPC3, dose 0.370 μM",108%
same,viability at 1.111 µM,"BXPC3; BXPC3, dose 1.111 μM",102%
same,viability at 3.333 µM,"BXPC3; BXPC3, dose 3.333 μM",91.5%
same,viability at 10 µM,"BXPC3; BXPC3, dose 10.000 μM",77%
same,viability at 30 µM,"BXPC3; BXPC3, dose 30.000 μM",75.8%
same,Emax,[2]; [4],61%
same,GI50,"[2]; read-out: GI50, geometric mean",9.49 µM
same,Emax,[3]; [4],24.8%
same,GI50,"[3]; read-out: GI50, geometric mean",> 10 µM
